Patent US9149038B2, “4-amino-6-(heterocyclic)picolinates and 6-amino-2-(heterocyclic)pyrimidine-4-carboxylates and their use as herbicides” (Dow AgroSciences LLC, priority 2013, dated 2015)
Like-named read-outs stand apart in the source and are kept apart here. One block for each molecule: values may come before it.

How the values were obtained:
[1] = system: Key Broadleaf and Grass Weed as well as Crop Species; assay: Post-Emergent Test I: postemergent herbicidal activity, visual phytotoxicity rating 10 days after treatment (Table 5); format: in vivo; details: 4 kg ai/ha; for Visual Growth Reduction (%) 10 Days After Application ECHCG: barnyardgrass (Echinochloa crus-galli); for pest or weed control at 4000 g/ha: post-emergence, 240 h, 10 days after application
Description: Herbicidal evaluations were made visually on a scale of 0 to 100 where 0 represents no activity and 100 represents complete plant death. Post-Emergent Test I: Seeds of test species were obtained from commercial suppliers and planted into a 5″-round pot containing soil-less media mix (Metro-Mix 360®, Sun Gro Horticulture). Postemergence treatments were planted 8-12 days (d) prior to application and cultured in a greenhouse equipped with supplemental light sources to provide a 16 h photoperiod at 24-29° C. All pots were surface irrigated. Approximately 10 milligrams (mg) of each compound were dissolved in 1.3 mL acetone-DMSO (97:3, volume per volume (v/v)) and diluted with 4.1 mL water-isopropanol-crop oil concentrate (78:20:2, v/v/v) containing 0.02% Triton X-155. Treatments were serial diluted with the above formulation solvent to provide 1.85, 0.926, 0.462 and 0.231 milligrams per milliliter (mg/mL) of test compound delivered in 2.7 mL/pot (roughly equivalent to 4.0, 2.0, 1.0, and 0.5 kg/ha, respectively). Formulated compounds were applied using a DeVilbiss® compressed air sprayer at 2-4 pounds per square inch (psi). Following treatment, pots were returned to the greenhouse for the duration of the experiment. All pots were sub-irrigated as needed to provide optimum growing conditions. All pots were fertilized one time per week by subirrigating with Peters Peat-Lite Special® fertilizer (20-10-20). Phytotoxicity ratings were obtained 10 days after treatment postemergence applications. All evaluations were made visually on a scale of 0 to 100 where 0 represents no activity and 100 represents complete plant death and are presented as indicated in Table 4.

[2] = giant foxtail (Setaria faberi), read-out: Visual Growth Reduction (%) 10 Days After Application SETFA
[3] = ivyleaf morningglory (Ipomoea hederecea), read-out: Visual Growth Reduction (%) 10 Days After Application IPOHE
[4] = sunflower (Helianthus annuus), read-out: Visual Growth Reduction (%) 10 Days After Application HELAN
[5] = wild oats (Avena fatua), read-out: Visual Growth Reduction (%) 10 Days After Application AVEFA

Structure (SMILES): Cc1c(-c2ccc3c(c2F)OC(F)(F)O3)nc(C(=O)O)c(Cl)c1N [Compound 54]
Visual Growth Reduction (%) 10 Days After Application ECHCG [1]: G (0-29) | pest or weed control at 4000 g/ha [1, 2]: 0 to 29% | pest or weed control at 4000 g/ha [1, 3]: 0 to 29% | pest or weed control at 4000 g/ha [1, 4]: 60 to 74% | pest or weed control at 4000 g/ha [1, 5]: 0 to 29%

Structure (SMILES): COc1cc2c(cc1-c1cc(N)c(Cl)c(C(=O)O)n1)OC(F)(F)O2 [Compound 39]
melting point: 165 to 166 °C

Structure (SMILES): Cc1c(-c2cc3c(cc2F)OC(F)(F)O3)nc(C(=O)O)c(Cl)c1N [Compound 51]
Visual Growth Reduction (%) 10 Days After Application ECHCG [1]: G (0-29) | pest or weed control at 4000 g/ha [1, 2]: 0 to 29% | pest or weed control at 4000 g/ha [1, 3]: 0 to 29% | pest or weed control at 4000 g/ha [1, 4]: 60 to 74% | pest or weed control at 4000 g/ha [1, 5]: 0 to 29%

Structure (SMILES): COC(=O)c1nc(-c2cc(F)c3c(c2)OC(F)(F)O3)cc(N)c1Cl [Compound 43]
melting point: 176 to 177 °C

Structure (SMILES): C=Cc1c(C(=O)OC)nc(-c2ccc3c(c2)OC(F)(F)O3)c(F)c1N [Compound 29]
melting point: 112 to 114 °C

Structure (SMILES): COC(=O)c1nc(-c2cc3c(cc2F)OC(F)(F)O3)c(C)c(N)c1Cl [Compound 50]
melting point: 162 to 165 °C

Other lines, results leading:

melting point: 153.5 to 155 °C
Structure (SMILES): COC(=O)c1nc(-c2ccc3c(c2F)OC(F)(F)O3)c(C)c(N)c1Cl [Compound 53]

melting point: 109 to 111 °C
Structure (SMILES): COC(=O)c1nc(-c2ccc3c(c2F)OC(F)(F)O3)nc(N)c1OC [Compound 65]

melting point: 170 °C
Structure (SMILES): Nc1cc(-c2cccc3c2OC(F)(F)O3)nc(C(=O)O)c1Cl [Compound 85]
